This test addresses T1, mTORC1 (mTOR kinase complex) (Homo sapiens, UniProt P42345).
T1 construct: mTORC1 complex immunoprecipitated from HEK293T cells expressing HA-tagged Raptor; with Raptor (HA-tagged; mTORC1 complex)
Briefly: in vitro kinase assay, immunoprecipitated mTORC1, GST-4EBP1 substrate, […] EPA (single concentration). Format: biochemical.

On to `CC/C=C\C/C=C\C/C=C\C/C=C\C/C=C\CCCC(=O)O` [EPA, eicosapentaenoic acid], for which the “in vitro kinase assay, immunoprecipitated mTORC1, GST-4EBP1 substrate, 100 μM EP” value was “The addition of EPA, but not EPA-EE, caused significant inhibition of 4EBP1 phosphorylation by immunoprecipitated mTORC1”.

The values above are taken from publication PMC11004178, “LDL receptor-related protein 5 selectively transports unesterified polyunsaturated fatty acids to intracellular compartments” (Nature Communications, 2024).
